Assay results: article PMC2674587 (BMC Immunology, 2009)
Where two headings read alike, the source gives them in different places.

Columns and labels:
hDPP-9 [1] = target: T1, hDPP-9 (Homo sapiens, UniProt Q86TI2); experiment: DPP-9 enzyme inhibition; format: biochemical
hDPP-2 = hDPP-2 (Homo sapiens, UniProt Q9UHL4); experiment: DPP-2 enzyme inhibition; format: biochemical
[2] = test system: T cell-dependent antibody responses to NP-CGG; experiment: T cell-dependent antibody responses to NP-CGG (ELISA titers, altered ligand density ELISA); format: in vivo, C57BL/6 mice; conditions: mice on chow ~400 mg/kg, immunized with NP-CGG
Method: Mice were immunized i.p. with 100 μg of NP-CGG in alum for the primary immunization, and 100 μg of NP-CGG in PBS i.p. for the secondary immunization. Mice were bled via the retro orbital sinus at indicated times and the levels of anti-NP and CGG antibodies and their isotypes were determined by ELISA as described previously. Briefly, mouse serum antibodies were immobilized onto 96-well plates coated with NP-BSA or CGG and detected with biotin-conjugated anti-mouse immunoglobulins. […] Relative affinities of serum antibodies were evaluated by using altered ligand density ELISA as described earlier.

[3] = test system: H-Y+ target cells (male splenocytes); experiment: In vivo cytotoxicity (CTL) assay against H-Y antigen; set-up: species or system C57BL/6 mice; conditions: for killing of male cells (CD8 T cell mediated): female mice primed and boosted with male splenocytes, CFSE-labeled targets, FACS, n = 8
Method: C57BL/6 female and male mice, age 8 ~10 weeks, were used for in vivo cytotoxicity assays. Female mice were immunized i.p. with syngeneic C57BL/6 male splenocytes (1 × 10^7 in 100 μl PBS) at day 0 and boosted at day 10 to generate anti-H-Y cytotoxic T cells. The in vivo CTL assay was performed as described earlier with some modifications Target cells were prepared and adoptively transferred to recipient female mice at day 18 post priming and specific killing of target H-Y^+ cells was analyzed at day 19. Briefly, male and female C57BL/6 naïve splenocytes were isolated and depleted of erythrocyte with RBC lysis buffer (Sigma-Aldrich, St. Louis, MO, USA). The splenocytes were washed 1× with 10% FBS RPMI 1640 and 2× with PBS. The cell densities were adjusted to 2×10^7 cells/ml. Male splenocytes were labeled with a high concentration (5 μM) of 5,6-carboxy-fluorescein succinimdyl ester (CFSE, Molecular Probes, Eugene, OR, USA), and the female splenocyte were labeled with low CFSE (0.5 μM). CFSE labeling was carried out by incubating 2 × 10^7 cells/ml in PBS with CFSE at 37°C in a 5% CO2 incubator for 10 min and quenched by adding 10% FBS RPMI to a final volume of 50 ml. Cells were washed 1× with 10%FBS RPMI and 2× with PBS to remove free CFSE. Male and female splenocytes were mixed 1:1 in PBS for the adoptive transfer. 10^6 cells in 200 μl PBS were injected into recipient female mice via tail vein injection. Similar amounts of cell were injected into the control unimmunized female mice. Spleens from the recipient mice were harvested after 16 hr, and splenocytes were analyzed for specific killing of H-Y^+ target cells by FACS. At least 5,000 CFSE positive cells were analyzed. The recovery and percent killing of the CFSE-labeled targets were calculated as follows: […]

hDPP-9 [4] = target: T1, hDPP-9; set-up: method as in PMID 16186403, PMID 16731832; conditions: read-out: does not inhibit DPP-9 at; cited from earlier work
Proline dipeptidase = conditions: read-out: does not inhibit Proline dipeptidase; cited from earlier work
Prolyl endopeptidase = conditions: read-out: does not inhibit Prolyl endopeptidase; cited from earlier work
[5] = test system: Fibroblast activation protein; conditions: read-out: does not inhibit Fibroblast activation protein; cited from earlier work
Amino peptidase P = conditions: read-out: does not inhibit Amino peptidase P; cited from earlier work
Prolidase = conditions: read-out: does not inhibit Prolidase; cited from earlier work

T1 sequence (Q86TI2 whole entry): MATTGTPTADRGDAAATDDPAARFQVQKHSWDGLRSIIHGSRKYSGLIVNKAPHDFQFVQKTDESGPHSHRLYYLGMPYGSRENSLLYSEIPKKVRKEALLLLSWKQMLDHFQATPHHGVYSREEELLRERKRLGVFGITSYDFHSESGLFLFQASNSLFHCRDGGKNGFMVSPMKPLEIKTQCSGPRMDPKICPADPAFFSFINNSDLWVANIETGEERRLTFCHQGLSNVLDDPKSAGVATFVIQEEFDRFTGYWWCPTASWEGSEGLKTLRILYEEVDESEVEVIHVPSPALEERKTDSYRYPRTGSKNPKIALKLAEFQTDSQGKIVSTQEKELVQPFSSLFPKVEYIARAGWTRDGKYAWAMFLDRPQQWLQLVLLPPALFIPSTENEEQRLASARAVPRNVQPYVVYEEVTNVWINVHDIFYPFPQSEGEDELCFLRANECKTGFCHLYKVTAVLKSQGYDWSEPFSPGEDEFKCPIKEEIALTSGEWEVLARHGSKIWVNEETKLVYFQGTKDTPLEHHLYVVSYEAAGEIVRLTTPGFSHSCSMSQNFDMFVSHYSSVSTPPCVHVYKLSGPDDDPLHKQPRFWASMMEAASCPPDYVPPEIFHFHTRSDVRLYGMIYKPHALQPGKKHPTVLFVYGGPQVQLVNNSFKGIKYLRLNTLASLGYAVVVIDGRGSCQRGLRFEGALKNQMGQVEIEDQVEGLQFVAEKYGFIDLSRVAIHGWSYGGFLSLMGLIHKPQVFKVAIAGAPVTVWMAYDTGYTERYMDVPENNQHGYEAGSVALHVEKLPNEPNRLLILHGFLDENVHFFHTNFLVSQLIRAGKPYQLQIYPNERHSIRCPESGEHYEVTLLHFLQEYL

SMILES	IC50 (hDPP-9 [1]) [µM]	IC50 (hDPP-2) [µM]	titers of anti-CGG IgG1 and other isotypes, drug treated vs control animals [2]	total anti-NP response as measured by λ-bearing and G1 isotype ([2]; primary and secondary response vs control)	killing of male cells (CD8 T cell mediated) [3]	CD8 T cell cytotoxicity in comparison to the wild type animals ([3]; female mice primed with male cells, compound in chow throughout)	IC50 (hDPP-9 [4]) [µM]	IC50 (Proline dipeptidase) [µM]	IC50 (Prolyl endopeptidase) [µM]	IC50 [5] [µM]	IC50 (Amino peptidase P) [µM]	IC50 (Prolidase) [µM]
N[C@@H](CC(=O)N1CCn2c(nnc2C(F)(F)F)C1)Cc1cc(F)ccc1F [Des-flurositagliptin, des-fluro sitagliptin]	> 10	> 10	similar	unaltered	~ 67%	equivalent cytotoxicity	> 10	> 10	> 10	> 10	> 10	> 10
C=CC[C@@H]1/C=C(\C)C[C@H](C)C[C@H](OC)[C@H]2O[C@@](O)(C(=O)C(=O)N3CCCC[C@H]3C(=O)O[C@H](/C(C)=C/[C@@H]3CC[C@@H](O)[C@H](OC)C3)[C@H](C)[C@@H](O)CC1=O)[C@H](C)C[C@@H]2OC [FK506]	–	–	–	–	40%	–	–	–	–	–	–	–
